In patent US20240294572A1, “Antimicrobial Peptides” (priority 2021, published 2024):
Non-standard residues stand in square brackets, D forms with d. Residues, ends and D or L forms follow the SMILES beside them. *: point of attachment. Decanoyl = CCCCCCCCCC(=O)*

System: S. aureus USA300 LAC
Assay: Neutropenic murine infection model, systemic efficacy
Format: in vivo, C57BL/6 mice
Details: 5 mg/kg i.p. single dose 2 hours post infection, versus untreated
Procedure: Female C57BL/6 mice (6 weeks old) were purchased from Charles River. After environmental adaptation, mice were induced to be neutropenic by the administration of two doses of cyclophosphamide on Day 1 (150 mg/kg) and Day 4 (100 mg/kg). On Day 5, mice were infected with S. aureus USA300 (˜2×10^6 CFU per mouse) via intraperitoneal injection (i.p.) (Lakshmaia, et al. (2020) Proc. Natl. Acad. Sci., 117:19446-19454). For the treatment groups, mice were i.p. treated 2 hours post infection with peptides at a single dose of 5 mg/kg. This bacterial strain was able to disseminate to different organs 2 hours post infection (Lakshmaia, et al. (2020) Proc. Natl. Acad. Sci., 117:19446-19454). At the end of the experiments, all the animals were sacrificed according to institutional guidelines. Organs, including spleen, liver, lung, and kidney, were harvested, weighed, and placed in 1 mL of sterile PBS and stored on ice. Harvested organs were subsequently homogenized using an Omni Homogenizer. Proper dilutions were made to get countable colonies. The homogenates were plated onto blood agar plates and incubated overnight at 37° C. The CFU of each murine tissue was plotted as an individual point, and error bars represent the deviation within the experimental group. * indicates p<0.05, **p<0.01, ***p<0.001, and NS means no significance (determined by Mann-Whitney test).

CCCCCCCCCC(=O)N[C@H](CCCCN)C(=O)N[C@H](CCCNC(=N)N)C(=O)N[C@@H](C(=O)N[C@H](Cc1c[nH]c2ccccc12)C(=O)N[C@H](CCC(N)=O)C(=O)N[C@H](CCCNC(=N)N)C(=O)N[C@@H](C(=O)N[C@H](CCCCN)C(N)=O)[C@H](C)CC)[C@H](C)CC [Peptide C10-KR8d] (Decanoyl-[dK][dR][dI][dW][dQ][dR][dI][dK]-NH2)
CFU decrease in mouse lung and liver: 0.5-1 log
CFU decrease in spleen and kidney: not in spleen and kidney
